Data as given in patent publication US20060239999A1, “Preventive and/or therapeutic drugs for asthma” (priority 2002, published 2006).

Experiments:
GPR4 = target: T1, GPR4 (Homo sapiens, UniProt P46093); assay: Antagonistic action on GPR4 (luciferase reporter in GPR4 assay cells induced by 17β-estradiol); assay type: cell-based; conditions: 10 nmol/L 17β-estradiol, 6 hours, luciferase luminescence
T1 construct: expressed in transfected cells; host or cells: KJMGER8 (Namalwa KJM-1 human B-cell line stably expressing Gal4-ER), co-transfected with pAGal9-GPR4 and the CRE-luciferase reporter pACREpluc
Method: Cells for GPR4 assay prepared in Referential Example 61 (said assay cells express GPR4 by stimulation with 17β-estradiol) were seeded on white plates at the rate of 10^5 cells/well, and a solution where 17β-estradiol (manufactured by Sigma) was diluted with a medium so as to make 10 nmol/L in the reaction solution and test compounds were added to the plate and the mixture was incubated at 37° C. for 6 hours in a 5% CO2 incubator. After that, a Steady Glo Luciferase Assay System (manufactured by Promega) solution was added to stop the reaction and the amount of luminescence during one second was measured using a Top Count (Packard, Meriden, Conn., U.S.
Activity of the each of test compounds (antagonistic action) was expressed by an inhibition rate calculated on the basis of counts per second in the presence or absence of 17β-estradiol as shown by the following formula. IC50 value was calculated from the inhibition rate by a linear approximate analysis of the Logit-Log conversion method.
In the formula, A, B and C each have the following meaning, respectively.
A: counts per second when 17β-estradiol and the test compound were added
B: counts per second when neither 17β-estradiol nor the test compound was added
C: counts per second when only 17β-estradiol was added
Inhibition Rate (%) [1−{(A−B)/(C−B)}]×100
1 μg of mRNA derived from human lung (manufactured by Clontech) was used and a single-stranded cDNA was synthesized using a SUPERSCRIPT First-Stranded Synthesis System for RT-PCR (manufactured by Gibco). GPR4 cDNA was prepared by PCR using a solution (5 μl) where said single-stranded cDNA was diluted with water to an extent of 250-fold as a template and synthetic DNA having nucleotide sequences represented by SEQ ID NO: 7 and NO: 8 as a GPR4 gene-specific primer. Sequence of the GPR4 gene-specific primer was designed on the basis of sequence information of GPR4 gene (GenBank Accession No. U21051). With regard to an enzyme, PfuTurbo DNA Polymerase (manufactured by Stratagene) was used. With regard to a buffer for conducting the PCR, a buffer of 10-fold concentration attached to the enzyme was used. The PCR was conducted by treating at 95° C. for 5 minutes and conducting 30 cycles of reaction each comprising at 94° C. for 1 minute, at 60° C. for 1 minute and at 72° C. for 1 minute using a thermal cycler DNA engine (manufactured by MJ Research).
2 μg of plasmid pAGal9-GPR4 with inducible expression of GPR4 and 2 μg of reporter plasmid pACREpluc were co-transferred into 6×10^6 cell of KJMGER8 by the above-mentioned electroporation. The transformants were suspended in 8 ml of an RPMI 1640-ITPSG medium and cultured in a CO2 incubator at 37° C. for 24 hours. After the cultivation, blasticidin S (2.0 μg/ml), hygromycin B (300 μg/ml) and geneticin (500 μg/ml) were added and cultivation was carried-out for 14 days more, and stable transformants (called GPR4 assay cells) were obtained. The transformants were subcultured in an RPMI 1640-ITPSG medium containing blasticidin S (2.0 μg/ml), hygromycin B (300 μg/ml) and geneticin (500 μg/ml).

BALB/c male mice [1] = assay: Suppressive effect on antigen-induced bronchoconstriction (airway resistance penh); assay type: in vivo; conditions: for AUC0-30min of the bronchoconstriction: ovalbumin-sensitized mice, mean value±standard error
Method: (§1) Suspention prepared by mixing of 50 μg of ovalbumin and 1 mg of aluminum hydroxide in a physiological saline solution (Otsuka Physiological Saline; manufactured by Otsuka. Pharmaceutical) was intraperitoneally administered to BALB/c male mice (7 weeks age) for two times with an interval of one week to sensitize and, after 14, 18 and 22 days from the final sensitization, 1% solution of ovalbumin in a physiological saline solution or a physiological saline solution (a negative control group) was inhaled for 30 minutes respectively to induce an antigen-antibody reaction. In the case of measurement of bronchoconstriction, compound 1 was suspended in a 0.5% aqueous solution of methylcellulose (solvent) and, 1 hour before inhalation of antigen after 14 days from the final sensitization 100 mg/kg of the suspention was orally administered or, 5 minutes before that, 30 mg/kg was intraperitoneally administered. In the case of measurement of airway hyperreactivity or eosinophil infiltration in airway, compound 1 was suspended as mentioned above and, after 14, 18 and 22 days from the final sensitization, 100 mg/kg of the suspention was orally administered 1 hour before and 6 hours after inhalation of each antigen. As a reference drug, prednisolone which is a steroid used for the treatment of asthma was orally administered at a dose of 30 mg/kg (as a solution being suspended in 0.5% aqueous solution of methylcellulose) once, 1 hour before inhalation of each antigen after 14, 18 and 22 days from the final sensitization. In a positive control group, the solvent was administered instead of a suspension of a test compound. (In the case of measurement of bronchoconstriction, the solvent was administered once, 1 hour before inhalation of antigen after 14 days from the final sensitization as for oral administration, or the solvent was administered once 30 minutes before inhalation of antigen after 14 days from the final sensitization as for intraperitoneal administration. In the case of measurement of airway hyperreactivity and eosinophil infiltration in airway, the solvent was administered 1 hour before and 6 hours after inhalation of each antigen after 14, 18 and 22 days from the final sensitization.)
(§2) With regard to the bronchoconstriction, airway resistance (penh) was evaluated by a measuring apparatus for respiration function of mice (BioSystems XA; Buxco Electronics, Inc., Sharon, Conn., U.S.A.) for 30 minutes from immediately after inhalation of antigen after 14 days from the final sensitization and evaluation was conducted by calculating the area under curve during the 30 minutes (AUC0-30 min). Further, after 24 hours from final inhalation of antigen, airway hyperreactivity and eosinophil infiltration in bronchoalveolar lavage fluid were evaluated.

BALB/c male mice [2] = assay: Suppressive effect on antigen-induced airway hyperreactivity (methacholine inhalation); assay type: in vivo; conditions: for airway hyperreactivity suppressed as compared with the positive control group: compound 1 100 mg/kg orally, prednisolone 30 mg/kg orally; for AUC of airway hyperreactivity: methacholine 1.5 to 25 mg/ml, compound 1 100 mg/kg orally 1 hour before and 6 hours after each antigen, prednisolone 30 mg/kg orally once before each antigen, mean value±standard error
Method: as §1, with “(In the case of measurement of bronchoconstriction, the solvent was administered once, 1 hour before inhalation of antigen after 14 days from the final sensitization as for oral administration, or the solvent was administered once 30 minutes before inhalation of antigen after 14 days from the final sensitization as for intraperitoneal administration. In the case of measurement of airway hyperreactivity and eosinophil infiltration in airway, the solvent was administered 1 hour before and 6 hours after inhalation of each antigen after 14, 18 and 22 days from the final sensitization.)” left out
as §2
(§3) With regard to eosinophil filtration, total cell numbers in the bronchoalveolar lavage fluid were measured by an automatic measuring apparatus for blood cell count (Celltac α MEK-6158; Nippon Koden, Tokyo), then the smears were prepared by Cytospin 3 (Shandon, Inc., Pittsburgh, Pa., U.S.A.) and evaluation was conducted by a morphological classification under a microscope. Eosinophil numbers were calculated by multiplying the total cell numbers by percentage of eosinophil cells. […]

BALB/c male mice [3] = assay: Suppressive effect on antigen-induced eosinophil infiltration in airway (bronchoalveolar lavage fluid); assay type: in vivo; conditions: for Eosinophil numbers in bronchoalveolar lavage fluid: 24 hours after final antigen inhalation, compound 1 100 mg/kg orally 1 hour before and 6 hours after each antigen, prednisolone 30 mg/kg orally once before each antigen; for eosinophil numbers decreased as compared with the positive control group: compound 1 100 mg/kg orally, prednisolone 30 mg/kg orally
Method: as §1, with “(In the case of measurement of bronchoconstriction, the solvent was administered once, 1 hour before inhalation of antigen after 14 days from the final sensitization as for oral administration, or the solvent was administered once 30 minutes before inhalation of antigen after 14 days from the final sensitization as for intraperitoneal administration. In the case of measurement of airway hyperreactivity and eosinophil infiltration in airway, the solvent was administered 1 hour before and 6 hours after inhalation of each antigen after 14, 18 and 22 days from the final sensitization.)” left out
as §2, §3

T1 sequence (P46093 whole entry, the tested form may be a part): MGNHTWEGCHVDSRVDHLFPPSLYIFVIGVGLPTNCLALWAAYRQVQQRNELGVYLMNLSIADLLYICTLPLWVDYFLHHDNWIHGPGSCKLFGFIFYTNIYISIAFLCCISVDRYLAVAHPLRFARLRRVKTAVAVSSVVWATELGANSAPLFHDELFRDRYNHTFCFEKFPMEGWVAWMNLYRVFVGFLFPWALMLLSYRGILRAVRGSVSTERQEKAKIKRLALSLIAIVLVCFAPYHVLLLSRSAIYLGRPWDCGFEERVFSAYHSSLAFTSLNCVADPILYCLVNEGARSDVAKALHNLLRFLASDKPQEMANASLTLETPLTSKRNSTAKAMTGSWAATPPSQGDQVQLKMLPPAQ

Structure (SMILES)	IC50 (GPR4) [nM]	airway hyperreactivity suppressed as compared with the positive control group (BALB/c male mice [2]) [%]	AUC of airway hyperreactivity (BALB/c male mice [2])	Eosinophil numbers in bronchoalveolar lavage fluid (BALB/c male mice [3])	eosinophil numbers decreased as compared with the positive control group (BALB/c male mice [3]) [%]	other results
CCc1nc2c(C)cc(C)nc2n1Cc1ccc2c(c1)CCc1cc(CN3CCN(C)CC3)ccc1N2 [Compound 1, 2-(2-Ethyl-5,7-dimethyl-3H-imidazo[4,5-b]pyridin-3-ylmethyl)-8-(4-methylpiperazin-1-ylmethyl)-10,11-dihydro-5H-dibenz[b,f]azepine]	4	60	243.23±48.7	0.92±0.26 ×10^5 per mouse	67	bronchoconstriction suppressed as compared with the positive control group (BALB/c male mice [1]; 30 mg/kg intraperitoneally): 105%; bronchoconstriction suppressed as compared with the positive control group (BALB/c male mice [1]; 100 mg/kg orally): 44%; AUC0-30min of the bronchoconstriction (BALB/c male mice [1]; 30 mg/kg intraperitoneally before antigen inhalation): 14.60±0.46; AUC0-30min of the bronchoconstriction (BALB/c male mice [1]; 100 mg/kg orally 1 hour before antigen inhalation): 16.85±0.84
CCc1nc2c(C)cc(C)nc2n1Cc1ccc2c(c1)CCc1cc(CN3CC=CCC3)ccc1N2 [Compound 2, 2-(2-Ethyl-5,7-dimethyl-3H-imidazo[4,5-b]pyridin-3-ylmethyl)-8-(1,2,5,6-tetrahydropyridin-1-ylmethyl)-10,11-dihydro-5H-dibenz[b,f]azepine]	3.2	–	–	–	–	–
CCc1nc2c(C)cc(C)nc2n1Cc1ccc2c(c1)CCc1cc(CN3CCCC3)ccc1N2 [Compound 3, 2-(2-Ethyl-5,7-dimethyl-3H-imidazo[4,5-b]pyridin-3-ylmethyl)-8-(pyrrolidin-1-ylmethyl)-10,11-dihydro-5H-dibenz[b,f]azepine]	2.3	–	–	–	–	–
CCc1nc2c(C)cc(C)nc2n1Cc1ccc2c(c1)CCc1cc(CN3CCOCC3)ccc1N2 [Compound 4, 2-(2-Ethyl-5,7-dimethyl-3H-imidazo[4,5-b]pyridin-3-ylmethyl)-8-morpholinomethyl-10,11-dihydro-5H-dibenz[b,f]a zepine]	5.8	–	–	–	–	–
CCc1nc2c(C)cc(C)nc2n1Cc1ccc2c(c1)CCc1cc(CN3CC(C)CC(C)C3)ccc1N2 (centres unmarked) [Compound 5]	14	–	–	–	–	–
C[C@]12C=CC(=O)C=C1CC[C@@H]1[C@@H]2[C@@H](O)C[C@@]2(C)[C@H]1CC[C@]2(O)C(=O)CO [prednisolone, reference compound]	–	43	269.12±46.7	0.76±0.25 ×10^5 per mouse	73	–
